According to PubChem BioAssay AID1259411 (Chemical Carcinogenesis Research Information System (CCRIS), 2018):
Activity calls are given as the source filed them. No rule for the calls is given here.

Tested on: rodent carcinogenicity bioassays, tumor incidence
Test: CCRIS carcinogenicity studies
Summary of the method: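 NCI-built, expert-reviewed records of carcinogenicity and related test outcomes (mutagenicity, tumor promotion/inhibition) compiled from published and report sources, historical span 1985-2011, not updated.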

SMILES: CC(=O)Nc1ccc2c(c1)Cc1ccccc1-2
- carcinogen call (Species: DOG, Strain/Sex: BEAGLE, Route: ORAL, Dose: 8.3-10.9 MG/KG/D (AVE DAILY INTAKE) FOR 68.5-91 MO (TOTAL DOSE: 90-198 G), Tumor Site: Type of Lesion: LIVER: CARCINOMA, URINARY BLADDER: PAPILLOMA): active; positive
- carcinogen call (Species: FISH, Strain/Sex: GUPPY/ MALE, FEMALE, Route: IMMERSION, Dose: 0, 1 MG/L IN WELL WATER FOR 1 6 HR EXPOSURE OR FOR 1,2,3 OR 4 12 HR EXPOSURES, MULTIPLE EXPOSURES GIVEN AT WEEKLY INTERV): inactive; negative
- carcinogen call (Species: FISH, Strain/Sex: GUPPY/ MALE, FEMALE, Route: IMMERSION, Dose: 0, 1 MG/L IN WELL WATER FOR 7 D CONTINUOUS EXPOSURE, SOLUTIONS RENEWED EVERY 24 HR (STUDY DURATION: 52 WK), Tumor Site: Type of Lesion: LIVER: TUMOR): active; positive
- carcinogen call (Species: FISH, Strain/Sex: MEDAKA/ MALE, FEMALE, Route: IMMERSION, Dose: 0, 1 MG/L IN WELL WATER FOR 1 6 HR EXPOSURE OR FOR 1,2,3 OR 4 12 HR EXPOSURES, MULTIPLE EXPOSURES GIVEN AT WEEKLY INTERV): inactive; negative
- carcinogen call (Species: FISH, Strain/Sex: MEDAKA/ MALE, FEMALE, Route: IMMERSION, Dose: 0, 1 MG/L IN WELL WATER FOR 7 D CONTINUOUS EXPOSURE, SOLUTIONS RENEWED EVERY 24 HR (STUDY DURATION: 52 WK)): inactive; negative
- carcinogen call (Species: HAMSTER, Strain/Sex: SYRIAN/ MALE, FEMALE, Route: INTRAPERITONEAL, ORAL, Dose: 5 MG/100 G 3/WK FOR 3 WK, THEN 0.06% IN DIET, Tumor Site: Type of Lesion: URINARY BLADDER, LIVER: CHOLANGIOCARCINOMA): active; positive
- carcinogen call (Species: HAMSTER, Strain/Sex: SYRIAN/FEMALE, Route: ORAL, Dose: 0.025% IN DIET FOR LIFE, Tumor Site: Type of Lesion: LIVER: INTRAHEPATIC BILE DUCT CARCINOMA): active; positive
- carcinogen call (Species: HAMSTER, Strain/Sex: SYRIAN, Route: ORAL, Dose: 5 MG FOR 22 WK THEN 15 MG FOR 4 WK, THEN 10 MG 2/WK AFTER 42 WK, Tumor Site: Type of Lesion: URINARY BLADDER: CARCINOMA): active; positive
- carcinogen call (Species: MOUSE, Strain/Sex: BALB/C/FEMALE, Route: ORAL, Dose: 0, 75, 100, 150 PPM IN DIET UP TO 33 MO (STUDY DURATION: 33 MO), Dose: 0, 75, 100, 150 PPM IN DIET UP TO 33 MO (STUDY DURATION: 33 MO), Tumor Site: Type of Lesion: LIVER: HEPATOCELLULAR ADENOMA OR CARCINOMA, BLADDER: TRANSITIONAL CELL CARCINOMA): active; positive
- carcinogen call (Species: MOUSE, Strain/Sex: CBA/ MALE, FEMALE, Route: ORAL, Dose: 3 MG/MOUSE 2/WK, Tumor Site: Type of Lesion: MAMMARY GLAND, URINARY BLADDER, LIVER, Tumor Site: Type of Lesion: MAMMARY GLAND, URINARY BLADDER, LIVER): active; positive
- carcinogen call (Species: MOUSE, Strain/Sex: EU-PIM-1/FEMALE, Route: GAVAGE, Dose: 0, 25, 100 MG/KG 1/D FOR 38 WK (STUDY DURATION: 38 WK), Dose: 0, 25, 100 MG/KG 1/D FOR 38 WK (STUDY DURATION: 38 WK)): inactive; negative
- carcinogen call (Species: MOUSE, Strain/Sex: EU-PIM-1/MALE, Route: GAVAGE, Dose: 0, 25, 100 MG/KG 1/D FOR 38 WK (STUDY DURATION: 38 WK), Dose: 0, 25, 100 MG/KG 1/D FOR 38 WK (STUDY DURATION: 38 WK), Tumor Site: Type of Lesion: LYMPHATIC SYSTEM: LYMPHOMA): active; positive
- carcinogen call (Species: MOUSE, Strain/Sex: R-III/ MALE, FEMALE, Route: ORAL, Dose: 3 MG/MOUSE 2/WK, Tumor Site: Type of Lesion: URINARY BLADDER, LIVER): active; positive
- carcinogen call (Species: MOUSE, Strain/Sex: STRAIN-A/ MALE, FEMALE, Route: ORAL, Dose: 3 MG/MOUSE 2/WK, Tumor Site: Type of Lesion: URINARY BLADDER): active; positive
- carcinogen call (Species: MOUSE, Strain/Sex: STRAIN-IF/ MALE, FEMALE, Route: ORAL, Dose: 3 MG/MOUSE 2/WK, Tumor Site: Type of Lesion: URINARY BLADDER, LIVER, MAMMARY GLAND, Tumor Site: Type of Lesion: URINARY BLADDER, LIVER, MAMMARY GLAND): active; positive
- carcinogen call (Species: RABBIT, Strain/Sex: NZW/ MALE, FEMALE, Route: ORAL, Dose: 100 MG 2/WK (TOTAL DOSE 21-52 G AS POWDER), Tumor Site: Type of Lesion: URINARY BLADDER: PAPILLOMA, ADENOCARCINOMA, URETER: PAPILLOMA, ADENOCARCINOMA): active; positive
- carcinogen call (Species: RABBIT, Strain/Sex: NZW/FEMALE, Route: ORAL, Dose: 100 MG IN 1 ML CORN OIL 2/WK FOR LIFE, Tumor Site: Type of Lesion: URINARY BLADDER: TRANSITIONAL CELL TUMOR, KIDNEY: TRANSITIONAL CELL TUMOR): active; positive
- carcinogen call (Species: RAT, Strain/Sex: AES/FEMALE, Route: ORAL, Dose: 300 MG/KG IN SEMI-PURIFIED OR STOCK DIET, Tumor Site: Type of Lesion: EAR (DUCT): CARCINOMA): active; positive
- carcinogen call (Species: RAT, Strain/Sex: ALBINO/ MALE, FEMALE, Route: ORAL, Dose: 0.036% IN DIET FOR 8 MO, Tumor Site: Type of Lesion: LIVER: HEPATOMA, MAMMARY GLAND, EAR (DUCT), Tumor Site: Type of Lesion: LIVER: HEPATOMA, MAMMARY GLAND, EAR (DUCT)): active; positive
- carcinogen call (Species: RAT, Strain/Sex: ALBINO/FEMALE, Route: ORAL, Dose: 0.125% IN DIET, Tumor Site: Type of Lesion: URINARY BLADDER: CARCINOMA): active; positive
- carcinogen call (Species: RAT, Strain/Sex: ALBINO/MALE, Route: ORAL, Dose: 0.018, 0.036% IN DIET FOR 90 DAYS, Tumor Site: Type of Lesion: LIVER: HEPATOMA, EAR (DUCT), INTESTINES (SMALL), Tumor Site: Type of Lesion: LIVER: HEPATOMA, EAR (DUCT), INTESTINES (SMALL)): active; positive
- carcinogen call (Species: RAT, Strain/Sex: BUFFALO/ MALE, FEMALE, Route: ORAL, Dose: 0.05% IN DIET FOR 23 WK (580 MG/RAT), Tumor Site: Type of Lesion: LIVER: HEPATOMA, EAR (DUCT): CARCINOMA): active; positive
- carcinogen call (Species: RAT, Strain/Sex: F344/MALE, Route: ORAL, Dose: 0.06% IN DIET FOR 3 WK, THEN CONTROL DIET FOR 1 WK, REPEATED 3X, Tumor Site: Type of Lesion: TESTES: MESOTHELIOMA, LIVER: HEPATOCELLULAR CARCINOMA, CHOLANGIOCARCINOMA): active; positive
- carcinogen call (Species: RAT, Strain/Sex: FEMALE, Route: ORAL, Dose: 0.03% IN DIET, Tumor Site: Type of Lesion: EYE): active; positive
- carcinogen call (Species: RAT, Strain/Sex: FEMALE, Route: ORAL, Dose: 1.62 MMOL/KG DIET FOR 8 MO, Tumor Site: Type of Lesion: MAMMARY GLAND, EAR (DUCT), INTESTINES (SMALL), Tumor Site: Type of Lesion: MAMMARY GLAND, EAR (DUCT), INTESTINES (SMALL)): active; positive
- carcinogen call (Species: RAT, Strain/Sex: HOLTZMAN/FEMALE, Route: ORAL, Dose: 1.62 MMOL/KG IN DIET, Tumor Site: Type of Lesion: MAMMARY GLAND, EAR (DUCT), INTESTINES (SMALL), Tumor Site: Type of Lesion: MAMMARY GLAND, EAR (DUCT), INTESTINES (SMALL)): active; positive
- carcinogen call (Species: RAT, Strain/Sex: HOLTZMAN/MALE, Route: ORAL, Dose: 1.62 MMOL/KG IN DIET, Tumor Site: Type of Lesion: LIVER, EAR (DUCT), INTESTINES (SMALL), Tumor Site: Type of Lesion: LIVER, EAR (DUCT), INTESTINES (SMALL)): active; positive
- carcinogen call (Species: RAT, Strain/Sex: LONG-EVANS/ MALE, FEMALE, Route: ORAL, Dose: IN DIET, Tumor Site: Type of Lesion: EAR (AUDITORY CANAL): SQUAMOUS CELL CARCINOMA): active; positive
- carcinogen call (Species: RAT, Strain/Sex: MALE, Route: ORAL, Dose: 1.62 MMOL/KG IN DIET FOR 8 MO, Tumor Site: Type of Lesion: LIVER: HEPATOMA, INTESTINES (SMALL), EAR (DUCT), Tumor Site: Type of Lesion: LIVER: HEPATOMA, INTESTINES (SMALL), EAR (DUCT)): active; positive
- carcinogen call (Species: RAT, Strain/Sex: PIEBALD/ MALE, FEMALE, Route: ORAL, Dose: 4 MG DAILY IN DIET FOR 25 WK, Tumor Site: Type of Lesion: LIVER: HEPATOMA, EAR (DUCT): CARCINOMA, INTESTINES: CARCINOMA, Tumor Site: Type of Lesion: LIVER: HEPATOMA, EAR (DUCT): CARCINOMA, INTESTINES: CARCINOMA): active; positive
- carcinogen call (Species: RAT, Strain/Sex: PIEBALD/FEMALE, Route: ORAL, Dose: 0.03% IN DIET, Tumor Site: Type of Lesion: MAMMARY GLAND: CARCINOMA): active; positive
- carcinogen call (Species: RAT, Strain/Sex: PIEBALD/MALE, Route: DERMAL, Dose: IN ACETONE, Tumor Site: Type of Lesion: LIVER: HEPATOMA, INTESTINES: CARCINOMA): active; positive
- carcinogen call (Species: RAT, Strain/Sex: SHEFFIELD/ MALE, FEMALE, Route: ORAL, Dose: 4 MG DAILY IN DIET FOR 25 WK, Tumor Site: Type of Lesion: LIVER: HEPATOMA, EAR (DUCT): CARCINOMA, INTESTINES: CARCINOMA, Tumor Site: Type of Lesion: LIVER: HEPATOMA, EAR (DUCT): CARCINOMA, INTESTINES: CARCINOMA): active; positive
- carcinogen call (Species: RAT, Strain/Sex: SHERMAN/ MALE, FEMALE, Route: ORAL, Dose: 0.03% IN DIET FOR LIFE, Tumor Site: Type of Lesion: LIVER: CARCINOMA): active; positive
- carcinogen call (Species: RAT, Strain/Sex: SPRAGUE-DAWLEY/FEMALE, Route: INTRAPERITONEAL, Dose: 1 MG/0.1 ML 3/WK FOR 4 WK (TOTAL DOSE 0.17 MMOL/RAT), Tumor Site: Type of Lesion: MAMMARY GLAND: ADENOCARCINOMA): active; positive
- carcinogen call (Species: RAT, Strain/Sex: SPRAGUE-DAWLEY/FEMALE, Route: ORAL, Dose: 300 MG/KG IN SEMI-PURIFIED OR STOCK DIET, Tumor Site: Type of Lesion: EAR (DUCT): CARCINOMA): active; positive
- carcinogen call (Species: RAT, Strain/Sex: STRAIN-CD/FEMALE, Route: ORAL, Dose: 80, 250 PPM IN DIET FOR 78 WK (LOW DOSE) OR 50 WK (HIGH DOSE), Tumor Site: Type of Lesion: LIVER: NEOPLASTIC NODULE, HEPATOCELLULAR CARCINOMA, MAMMARY GLAND: ADENOCARCINOMA): active; positive
- carcinogen call (Species: RAT, Strain/Sex: STRAIN-CD/MALE, Route: ORAL, Dose: 80, 250 PPM IN DIET FOR 78 WK (LOW DOSE) OR 50 WK (HIGH DOSE), Tumor Site: Type of Lesion: LIVER: HEPATOCELLULAR CARCINOMA): active; positive
- carcinogen call (Species: RAT, Strain/Sex: WISTAR/ MALE, FEMALE, Route: ORAL, Dose: 0.03% IN DIET FOR LIFE, Tumor Site: Type of Lesion: LIVER: CARCINOMA): active; positive
- carcinogen call (Species: RAT, Strain/Sex: WISTAR/ MALE, FEMALE, Route: ORAL, Dose: 0.07% IN DIET, Tumor Site: Type of Lesion: LIVER: HEPATOMA): active; positive
- carcinogen call (Species: RAT, Strain/Sex: WISTAR/MALE, Route: DERMAL, Dose: IN ACETONE, Tumor Site: Type of Lesion: LIVER: HEPATOMA, INTESTINES: CARCINOMA): active; positive
